Experimental data from patent publication US20260007681A1, “INDOLE DERIVATIVES AS ESTROGEN RECEPTOR DEGRADERS” (REGENTS OF THE UNIVERSITY OF MICHIGAN, priority 2022, published 2026).

target: ER (Homo sapiens (Human), UniProt P03372); assay: Western blot analysis (Compounds B1-B278); assay type: cell-based; conditions: ER degradation by traditional Western blot; DC50 classes
How it was run: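 Compound-treated cells were lysed in RIPA buffer (Tris.HCl pH 7.6, 1% NP-40, deoxycholate, 0.1% SDS) with protease inhibitors; equal protein was resolved on 10% SDS-PAGE, transferred to PVDF and immunoblotted. Band intensities were quantified and normalized to GAPDH.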

Sequence of ER (P03372 whole entry): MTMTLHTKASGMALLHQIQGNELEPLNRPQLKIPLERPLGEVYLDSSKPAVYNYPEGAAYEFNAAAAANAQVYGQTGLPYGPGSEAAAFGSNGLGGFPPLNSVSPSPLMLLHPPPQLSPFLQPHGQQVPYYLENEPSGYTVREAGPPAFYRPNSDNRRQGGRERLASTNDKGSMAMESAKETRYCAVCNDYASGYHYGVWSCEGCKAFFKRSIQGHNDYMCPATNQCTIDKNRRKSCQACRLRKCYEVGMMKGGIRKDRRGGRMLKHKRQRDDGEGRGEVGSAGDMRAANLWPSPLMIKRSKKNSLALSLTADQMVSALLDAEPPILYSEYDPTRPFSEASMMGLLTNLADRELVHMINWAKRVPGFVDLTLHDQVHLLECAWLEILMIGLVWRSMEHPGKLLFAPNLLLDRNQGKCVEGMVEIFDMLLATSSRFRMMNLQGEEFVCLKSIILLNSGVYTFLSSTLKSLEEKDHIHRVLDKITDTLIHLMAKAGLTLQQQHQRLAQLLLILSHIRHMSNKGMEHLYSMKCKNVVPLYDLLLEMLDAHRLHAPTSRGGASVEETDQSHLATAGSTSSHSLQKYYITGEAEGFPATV

| Traditional Western Degradation Potency | Compound |
| --- | --- |
| C (“C”: >100 nM) | C[C@@H]1Cc2c([nH]c3ccccc23)[C@@H](c2c(F)cc(N3CCC(CC(=O)N4Cc5cc6c(cc5C4)C(=O)N(C4CCC(=O)NC4=O)C6)CC3)cc2F)N1CC(F)F (stereo partly drawn) [Compound B44, 3-(6-(2-(1-(4-((1R,3R)-2-(2,2-difluoroethyl)-3-methyl-2,3,4,9-tetrahydro-1H-pyrido[3,4-b]indol-1-yl)-3,5-difluorophenyl)piperidin-4-yl)acetyl)-1-oxo-3,5,6,7-tetrahydropyrrolo[3,4-f]isoindol-2(1H)-yl)piperidine-2,6-dione] |
| B (“B”: 10-100 nM) | C[C@H]1Cc2c([nH]c3ccccc23)[C@H](c2c(F)cc(N3CC4(CCCN(C(=O)CN5Cc6cc7c(cc6C5)C(=O)N(C5CCC(=O)NC5=O)C7=O)C4)C3)cc2F)N1CC(F)F (stereo partly drawn) [Compound B23, 6-(2-(2-(4-((1S,3S)-2-(2,2-difluoroethyl)-3-methyl-2,3,4,9-tetrahydro-1H-pyrido[3,4-b]indol-1-yl)-3,5-difluorophenyl)-2,6-diazaspiro[3.5]nonan-6-yl)-2-oxoethyl)-2-(2,6-dioxopiperidin-3-yl)-6,7-dihydropyrrolo[3,4-f]isoindole-1,3(2H,5H)-dione] |
| A (“A”: <10 nM) | C[C@@H]1Cc2c([nH]c3ccccc23)[C@@H](c2c(F)cc(N3CCC4(CCN(CC(=O)N5Cc6cc7c(cc6C5)C(=O)N(C5CCC(=O)NC5=O)C7)C4)CC3)cc2F)N1CC(F)F (stereo partly drawn) [Compound B194, 3-(6-(2-(8-(4-((1R,3R)-2-(2,2-difluoroethyl)-3-methyl-2,3,4,9-tetrahydro-1H-pyrido[3,4-b]indol-1-yl)-3,5-difluorophenyl)-2,8-diazaspiro[4.5]decan-2-yl)acetyl)-1-oxo-3,5,6,7-tetrahydropyrrolo[3,4-f]isoindol-2(1H)-yl)piperidine-2,6-dione] |
| C (“C”: >100 nM) | C[C@@H]1Cc2c([nH]c3ccccc23)[C@@H](c2ncc(C3=CCC(C(=O)N4CCC(N5Cc6cc7c(cc6C5)C(=O)N(C5CCC(=O)NC5=O)C7=O)CC4)CC3)cc2F)N1CC(C)(C)F (stereo partly drawn) [Compound B248, 2-(2,6-dioxopiperidin-3-yl)-6-(1-(4-(5-fluoro-6-((1S,3R)-2-(2-fluoro-2-methylpropyl)-3-methyl-2,3,4,9-tetrahydro-1H-pyrido[3,4-b]indol-1-yl)pyridin-3-yl)cyclohex-3-ene-1-carbonyl)piperidin-4-yl)-6,7-dihydropyrrolo[3,4-f]isoindole-1,3(2H,5H)-dione] |
| A (“A”: <10 nM) | C[C@@H]1Cc2c([nH]c3ccccc23)[C@@H](c2c(F)cc(N3CCC4(CC3)CC(C(=O)N3CCC(N5Cc6cc7c(cc6C5)C(=O)N(C5CCC(=O)NC5=O)C7=O)CC3)C4)cc2F)N1CC(F)F (stereo partly drawn) [Compound B40, 6-(1-(7-(4-((1R,3R)-2-(2,2-difluoroethyl)-3-methyl-2,3,4,9-tetrahydro-1H-pyrido[3,4-b]indol-1-yl)-3,5-difluorophenyl)-7-azaspiro[3.5]nonane-2-carbonyl)piperidin-4-yl)-2-(2,6-dioxopiperidin-3-yl)-6,7-dihydropyrrolo[3,4-f]isoindole-1,3(2H,5H)-dione] |
| C (“C”: >100 nM) | C[C@@H]1Cc2c([nH]c3ccccc23)[C@@H](c2ccc(N3CCC4(CCN(C(=O)CN5Cc6cc7c(cc6C5)C(=O)N(C5CCC(=O)NC5=O)C7=O)CC4)CC3)cn2)N1CC(F)F (stereo partly drawn) [Compound B228, 6-(2-(9-(6-((1S,3R)-2-(2,2-difluoroethyl)-3-methyl-2,3,4,9-tetrahydro-1H-pyrido[3,4-b]indol-1-yl)pyridin-3-yl)-3,9-diazaspiro[5.5]undecan-3-yl)-2-oxoethyl)-2-(2,6-dioxopiperidin-3-yl)-6,7-dihydropyrrolo[3,4-f]isoindole-1,3(2H,5H)-dione] |
| B (“B”: 10-100 nM) | C[C@@H]1Cc2c([nH]c3ccccc23)[C@@H](c2c(F)cc(C3CCC(CN4CCC(N5Cc6cc7c(cc6C5)C(=O)N(C5CCC(=O)NC5=O)C7)CC4)CC3)cc2F)N1CC(F)F (stereo partly drawn) [Compound B85, 3-(6-(1-((4-(4-((1R,3R)-2-(2,2-difluoroethyl)-3-methyl-2,3,4,9-tetrahydro-1H-pyrido[3,4-b]indol-1-yl)-3,5-difluorophenyl)cyclohexyl)methyl)piperidin-4-yl)-1-oxo-3,5,6,7-tetrahydropyrrolo[3,4-f]isoindol-2(1H)-yl)piperidine-2,6-dione] |
| B (“B”: 10-100 nM) | COc1cc([C@H]2CC[C@H](C(=O)N3CCC(N4Cc5cc6c(cc5C4)C(=O)N(C4CCC(=O)NC4=O)C6=O)CC3)CC2)ccc1[C@@H]1c2[nH]c3ccccc3c2C[C@@H](C)N1CC(F)F (stereo partly drawn) [Compound B111, 6-(1-((1R,4r)-4-(4-((1R,3R)-2-(2,2-difluoroethyl)-3-methyl-2,3,4,9-tetrahydro-1H-pyrido[3,4-b]indol-1-yl)-3-methoxyphenyl)cyclohexane-1-carbonyl)piperidin-4-yl)-2-(2,6-dioxopiperidin-3-yl)-6,7-dihydropyrrolo[3,4-f]isoindole-1,3(2H,5H)-dione] |
| B (“B”: 10-100 nM) | C[C@@H]1Cc2c([nH]c3ccccc23)[C@@H](c2c(F)cc(N3CCCC4(CN(C(=O)CN5Cc6cc7c(cc6C5)C(=O)N(C5CCC(=O)NC5=O)C7)C4)C3)cc2F)N1CC(F)F (stereo partly drawn) [Compound B13, 3-(6-(2-(6-(4-((1R,3R)-2-(2,2-difluoroethyl)-3-methyl-2,3,4,9-tetrahydro-1H-pyrido[3,4-b]indol-1-yl)-3,5-difluorophenyl)-2,6-diazaspiro[3.5]nonan-2-yl)-2-oxoethyl)-1-oxo-3,5,6,7-tetrahydropyrrolo[3,4-f]isoindol-2(1H)-yl)piperidine-2,6-dione] |
| B (“B”: 10-100 nM) | C[C@@H]1Cc2c([nH]c3ccccc23)[C@@H](c2ccc(N3CCC4(CC3)CN(C(=O)CN3Cc5cc6c(cc5C3)C(=O)N(C3CCC(=O)NC3=O)C6=O)C4)cc2)N1CC(F)F (stereo partly drawn) [Compound B224, 6-(2-(7-(4-((1R,3R)-2-(2,2-difluoroethyl)-3-methyl-2,3,4,9-tetrahydro-1H-pyrido[3,4-b]indol-1-yl)phenyl)-2,7-diazaspiro[3.5]nonan-2-yl)-2-oxoethyl)-2-(2,6-dioxopiperidin-3-yl)-6,7-dihydropyrrolo[3,4-f]isoindole-1,3(2H,5H)-dione] |
| C (“C”: >100 nM) | C[C@@H]1Cc2c([nH]c3ccccc23)[C@@H](c2ccc(C3CCC(C(=O)N4CCC(N5Cc6cc7c(cc6C5)C(=O)N(C5CCC(=O)NC5=O)C7=O)CC4)CC3)nc2)N1CC(F)F (stereo partly drawn) [Compound B238, 6-(1-(4-(5-((1R,3R)-2-(2,2-difluoroethyl)-3-methyl-2,3,4,9-tetrahydro-1H-pyrido[3,4-b]indol-1-yl)pyridin-2-yl)cyclohexane-1-carbonyl)piperidin-4-yl)-2-(2,6-dioxopiperidin-3-yl)-6,7-dihydropyrrolo[3,4-f]isoindole-1,3(2H,5H)-dione] |
| B (“B”: 10-100 nM) | C[C@@H]1Cc2c([nH]c3ccccc23)[C@@H](c2ccc(C3=CCC(C(=O)N4CCC(N5Cc6cc7c(cc6C5)C(=O)N(C5CCC(=O)NC5=O)C7=O)CC4)CC3)cc2)N1CC(F)F (stereo partly drawn) [Compound B237, 6-(1-(4′-((1R,3R)-2-(2,2-difluoroethyl)-3-methyl-2,3,4,9-tetrahydro-1H-pyrido[3,4-b]indol-1-yl)-2,3,4,5-tetrahydro-[1,1′-biphenyl]-4-carbonyl)piperidin-4-yl)-2-(2,6-dioxopiperidin-3-yl)-6,7-dihydropyrrolo[3,4-f]isoindole-1,3(2H,5H)-dione] |
| B (“B”: 10-100 nM) | C[C@@H]1Cc2c([nH]c3ccccc23)[C@@H](c2c(F)cc(N3CCCC(CN4CCC(N5Cc6cc7c(cc6C5)C(=O)N(C5CCC(=O)NC5=O)C7=O)CC4)C3)cc2F)N1CC(F)F (stereo partly drawn) [Compound B190, 6-(1-((1-(4-((1R,3R)-2-(2,2-difluoroethyl)-3-methyl-2,3,4,9-tetrahydro-1H-pyrido[3,4-b]indol-1-yl)-3,5-difluorophenyl)piperidin-3-yl)methyl)piperidin-4-yl)-2-(2,6-dioxopiperidin-3-yl)-6,7-dihydropyrrolo[3,4-f]isoindole-1,3(2H,5H)-dione] |
| C (“C”: >100 nM) | C[C@@H]1Cc2c([nH]c3ccccc23)[C@@H](c2c(F)cc(N3CCC(CN4CC(C(=O)N5Cc6cc7c(cc6C5)C(=O)N(C5CCC(=O)NC5=O)C7=O)C4)CC3)cc2F)N1CC(F)F (stereo partly drawn) [Compound B212, 6-(1-((1-(4-((1R,3R)-2-(2,2-difluoroethyl)-3-methyl-2,3,4,9-tetrahydro-1H-pyrido[3,4-b]indol-1-yl)-3,5-difluorophenyl)piperidin-4-yl)methyl)azetidine-3-carbonyl)-2-(2,6-dioxopiperidin-3-yl)-6,7-dihydropyrrolo[3,4-f]isoindole-1,3(2H,5H)-dione] |
